US9713613B2, “Methods and compositions for the treatment of cancer and related hyperproliferative disorders” (priority 2007, dated 2017)

What was measured:
[1] = test system: SREBP-2; assay: Western blot analysis of SREBP processing in CHO-K1 cells; assay type: cell-based, Chinese hamster
From the text: To determine if fatostatin affects the ER-Golgi translocation and proteolytic processing of SREBPs, a reporter assay developed by Sakai et al. (1998) was used. PLAP-BP2 in transfected CHO-K1 cells remains membrane-bound unless it is cleaved by S1P in the Golgi and secreted into the culture medium. In the assay, a secreted alkaline phosphatase, fused with an SREBP-2 fragment lacking the NH2-terminal DNA-binding domain (PLAP-BP2513-1141), permits monitoring of translocation and processing through changes in the fluorescence of a fluorogenic phosphatase substrate (FIG. 18C). When cells were co-transfected with plasmids encoding PLAP-BP2513-1141 and SCAP, PLAP phosphatase was secreted, generating fluorescence signals. […] The fatostatin-mediated inhibition of SREBP activation was confirmed by western blot analysis of SREBPs. […] Similar results were obtained for SREBP-1 (FIG. 22).
Western blot analysis of SREBP processing. […] The protein concentration of each total cell extract was measured (BCA kit; Pierce), after which a 22-33 μg aliquot of cell extract was mixed with 0.25 volume of buffer (250 mM Tris-HCl, pH 6.8, 10% SDS, 25% glycerol, 0.2% (w/v) bromophenol blue, and 5% (v/v) 2-mercaptoethanol), heated for 7 min at 95° C. […]

[2] = test system: MOLT-4 cells; assay: MOLT-4 cell growth, MTT assay; assay type: cell-based, human; details: 48 hours
Experimental: 10,000 MOLT-4 cells (FIGS. 35A-35C) and 20,000 RPM18226 cells (FIGS. 35D-35F) were seeded onto 96 well plate in RPMI 1640 medium containing 5% FBS or fat-free charcoal treated serum (FF-FBS) for 24 hours at 37 C. MOLT-4 and RPM18226 cells were treated for additional 48 hours with different concentrations of compound 19 (None control without DMSO, Vehicle with DMSO, 1, 2, 5, 10 and 20 μM in DMSO; RPM18226 cells also were treated with 3 μM in DMSO). At the end of 48 hours cells were subjected to MTT assay to determine viability. Values are depicted as means±SD; *P<0.05.
20,000 MOLT-4 cells (FIGS. 36A-36C) and 20,000 RPM18226 cells (FIGS. 36D-36F) cells were seeded onto 96 well plates in RPMI 1640 Medium containing 5% Fetal bovine serum (FBS) or 5% fat free charcoal treated serum (FF-FBS) for 24 hours at 37 C. Cells then were treated for additional 48 hours with different concentrations of compound 17 (None control without DMSO, Vehicle with DMSO, 1, 2, 3, 5, 10 and 20 μM in DMSO). At the end of the 48 hours treatment cells were subjected to MTT assay to determine viability. Values are depicted as means±SD (n=3); **P<0.001; ***P<0.0001.
MOLT-4 cells were grown at two different conditions under 5% fetal bovine serum (FBS) and under 5% FBS fat free serum (charcoal treated serum). 10,000 Cells were seeded a 96 well plate for 24 hours before starting the treatment with different concentrations of compound 19. Compound 19 dissolved in DMSO was added to cells for 48 hours before determining cell growth using MTT assay. […] Compound 19 inhibited cell growth about 75-80% at 10 and 20 μM under both growth conditions.
MOLT-4 cells were grown at two different conditions under 5% fetal bovine serum (FBS) and under 5% FBS fat free serum (charcoal treated serum). 20,000 cells were seeded into a 96 well plate for 24 hours before starting the treatment with different concentrations of compound 17. Compound 17 dissolved in DMSO was added to cells for 48 hours before determining cell growth using MTT assay. […] Compound 17 inhibited cell growth about 85-100% at 5, 10 and 20 μM under both growth conditions. Under both 5% FBS and 5% FBS fat free sera there was a strong trend of inhibition starting at 1 μM (FIGS. 36B-36C).

[3] = test system: HePG2 cells; assay: HePG2 cell growth, SREBP-1 western blot; assay type: cell-based, human
Experimental: Cells were seeded onto 16 well plates at a density of 100000 cells/well in medium containing 2% charcoal stripped serum. After 24 hours, compound 19 was added to the cells at the indicated concentrations for another 48 hours. […] Values are depicted as means±SD; *P<0.05.

Structure (SMILES)	amounts of mature and precursor forms of SREBP-2 (western blot) [1]	growth inhibition ([2]; 2 and 5 μM, FBS fat free serum)	inhibition of cell growth ([2]; 10 and 20 μM, 5% FBS and 5% FBS fat free)	level of mature and precursor forms of SREBP-1 (western blot) ([3]; 25 μM, HePG2 cells)	toxicity, morphology and growth of treated cells ([3]; 25, 50 and 100 μM, 48 hours)
CCCc1cc(-c2nc(-c3ccc(C)cc3)cs2)ccn1 [Compound 1, 2-propyl-4-(4-p-tolylthiazol-2-yl)pyridine]	decreased the amount of the 68 KDa mature form of SREBP-2				
CCCc1cc(-c2nc(-c3ccc(NS(C)(=O)=O)cc3)cs2)ccn1 [Compound 19, N-(4-(2-(2-propylpyridin-4-yl)thiazol-4-yl)phenyl)methanesulfonamide]		30-50%	75-80%	significant decrease in the level of the mature and active form	high level of toxicity
